Blank lines part the entries; values can stand above or below the compound they belong to.
How the values were obtained:
[1] = system: histamine-induced contractions in guinea pig ileum; assay: Inhibition of histamine-induced contractions in guinea pig ileum (Assay 3); conditions: Cavia porcellus, histamine 1.7 μM, read-out: Inhibition of histamine-induced contraction (%)
Method in brief: (§1)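 Ileal strips from male Duncan Hartley guinea pigs were held at 1 g tension in 32° C oxygenated Krebs (pH 7.4) with isotonic transducers. After control contractions to 5-HT (2.6 μM) or histamine (1.7 μM), compound at 3 and 30 μM was added, its own effect noted, and agonist re-applied.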

[2] = system: IL-1α-induced PGE2 release; assay: IL-1α-induced PGE2 release in human diploid lung fibroblasts (WI-38) (Assay 5); format: cell-based; conditions: Homo sapiens, WI-38 cells, IL-1α 1 nM, overnight
Method in brief: (§2)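 Cell viability was read by Alamar Blue fluorescence (530/590 nm) after 4 h at 37 °C, following an overnight 37 °C incubation of human lung fibroblasts with 1 nM IL-1α and compound (3 or 30 μM) in 10% FBS MEM, pH 7.3. Supernatant PGE2 was measured by radioimmunoassay to derive percent inhibition.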

WI-38 cells = assay: Viability of WI-38 cells, Alamar Blue (Assay 5); format: cell-based, human
Method in brief: as §2

TRPV1 receptor [3] = target: T1, TRPV1 receptor (Rattus norvegicus, UniProt O35433); assay: TRPV1 receptor modulation in the rat vas deferens, EFS-induced contraction (Assay 1); conditions: electrical field stimulation, read-out: Inhibition of EFS response relative to capsaicin
T1 sequence (O35433 whole entry): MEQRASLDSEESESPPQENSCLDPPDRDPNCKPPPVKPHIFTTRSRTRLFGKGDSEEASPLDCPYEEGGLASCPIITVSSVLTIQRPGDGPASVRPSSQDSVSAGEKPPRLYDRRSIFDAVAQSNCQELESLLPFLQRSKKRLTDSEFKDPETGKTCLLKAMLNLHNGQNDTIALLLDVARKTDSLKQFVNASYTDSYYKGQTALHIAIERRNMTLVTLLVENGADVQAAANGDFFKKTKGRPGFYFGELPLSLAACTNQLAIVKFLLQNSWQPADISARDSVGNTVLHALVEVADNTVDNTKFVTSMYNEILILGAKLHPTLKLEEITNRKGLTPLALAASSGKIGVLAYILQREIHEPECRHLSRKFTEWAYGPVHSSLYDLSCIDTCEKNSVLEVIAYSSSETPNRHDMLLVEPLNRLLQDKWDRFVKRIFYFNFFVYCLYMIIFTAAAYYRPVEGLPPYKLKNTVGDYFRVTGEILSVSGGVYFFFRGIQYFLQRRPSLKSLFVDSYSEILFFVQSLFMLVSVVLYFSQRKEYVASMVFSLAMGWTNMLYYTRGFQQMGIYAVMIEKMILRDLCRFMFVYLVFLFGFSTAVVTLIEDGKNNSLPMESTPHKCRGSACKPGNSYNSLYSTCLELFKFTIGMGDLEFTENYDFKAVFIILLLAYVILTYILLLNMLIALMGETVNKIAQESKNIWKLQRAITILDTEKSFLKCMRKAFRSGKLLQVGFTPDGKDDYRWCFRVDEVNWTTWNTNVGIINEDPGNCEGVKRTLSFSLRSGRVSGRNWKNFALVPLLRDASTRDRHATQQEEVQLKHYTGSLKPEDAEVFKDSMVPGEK
Description: Wistar derived male rats (275±25 g) were suppressed by CO2 overexposure. The vas deferens was removed, placed in Krebs solution, pH 7.4 (composition in g/l: NaCl 6.89, KCl 0.35, CaCl2 0.277, KH2PO4 0.163, MgSO4.7H2O 0.296, NaHCO3 2.1 glucose 1.8) and excess fat and connective tissue removed. The portion of the vas deferens closest to the prostate was cut in half and each half was placed under 1 g tension in a 10 ml bath containing Krebs solution at 32° C. The tissue was contracted by electrical field stimulation (EFS; 60% of maximum stimulation, 0.015 Hz, 0.5 ms in duration) and contractile responses were measured.

[4] = system: 5-HT-induced contractions in guinea pig ileum; assay: Inhibition of 5-HT-induced contractions in guinea pig ileum (Assay 3); conditions: Cavia porcellus, 5-HT 2.6 μM, read-out: Inhibition of 5-HT-induced contraction (%)
Method in brief: as §1

5-lipoxygenase = target: T2, 5-lipoxygenase (Homo sapiens, UniProt P09917); assay: 5-lipoxygenase activity (LTB4) in human peripheral blood mononuclear leukocytes (Assay 6); format: cell-based; conditions: human PBMLs, A23187 30 μM, read-out: Inhibition of 5-LO (%)
T2 construct: endogenous in cells; host or cells: human peripheral blood mononuclear leukocytes (PBMLs)
T2 sequence (P09917 1-674): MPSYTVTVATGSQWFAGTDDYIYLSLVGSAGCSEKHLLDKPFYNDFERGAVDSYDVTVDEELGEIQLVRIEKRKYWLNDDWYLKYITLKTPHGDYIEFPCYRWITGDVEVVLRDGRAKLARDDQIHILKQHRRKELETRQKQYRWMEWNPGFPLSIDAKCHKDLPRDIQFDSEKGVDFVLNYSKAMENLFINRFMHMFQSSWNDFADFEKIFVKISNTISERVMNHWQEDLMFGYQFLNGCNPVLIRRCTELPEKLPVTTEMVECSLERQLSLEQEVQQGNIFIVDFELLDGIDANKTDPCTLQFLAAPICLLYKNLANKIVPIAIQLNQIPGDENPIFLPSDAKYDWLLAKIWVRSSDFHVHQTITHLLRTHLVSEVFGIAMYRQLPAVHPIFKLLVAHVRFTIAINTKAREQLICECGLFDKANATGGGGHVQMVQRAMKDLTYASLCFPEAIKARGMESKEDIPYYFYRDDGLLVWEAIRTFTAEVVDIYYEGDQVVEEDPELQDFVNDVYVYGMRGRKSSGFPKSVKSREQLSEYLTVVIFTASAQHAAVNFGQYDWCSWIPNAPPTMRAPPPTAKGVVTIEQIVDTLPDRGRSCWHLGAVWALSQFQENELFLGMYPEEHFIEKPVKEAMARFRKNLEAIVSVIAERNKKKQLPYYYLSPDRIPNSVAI
Method in brief: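 LTB4 in supernatant quantified by EIA after 15 min at 37° C. in HBSS, pH 7.4, where Ficoll-isolated human PBMLs (5×10^6) received ionophore A23187 (30 μM) and test compound (3 and 30 μM) or 0.1% DMSO vehicle.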

[5] = system: α-smooth muscle actin (α-SMA) mRNA; assay: Anti-remodelling activity in human lung fibroblasts (HFL1): TGFβ-induced α-SMA mRNA (Assay 4); format: cell-based; conditions: Homo sapiens, HFL1 cells, TGFβ 10 ng/ml, 24 h, read-out: Inhibition of α-SMA mRNA synthesis (%)
Method in brief: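 Real-time RT-PCR of α-SMA mRNA, GAPDH as reference, measured after 24 h exposure of low-serum-primed HFL1 cells to 10 ng/ml TGFβ with test compounds (3 and 30 μM) in 10% FBS medium. Readout is inhibition of TGFβ-driven α-SMA mRNA overexpression.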

TRPV1 receptor [6] = target: T1, TRPV1 receptor; assay: TRPV1 modulation in DRG neurones: CGRP release in absence and presence of capsaicin (Assay 2); format: cell-based; parameters: The culture used for this experiment contained sensory neurones, Schwann cells and fibroblasts; endogenous in cells; host or cells: primary rat DRG sensory neurone culture (with Schwann cells and fibroblasts); conditions: 20 min; for inhibition at 3 µM: 3 μM with capsaicin 1 μM; for inhibition at 3 µM / inhibition at 30 µM: −ve: inhibition, +ve: potentiation of capsaicin response, read-out: Effect of test compounds on capsaicin (1 μM)-induced CGRP release (%); for inhibition at 30 µM: 30 μM with capsaicin 1 μM; for Emax at 3 µM: test compound alone 3 μM; for Emax at 3 µM / Emax at 30 µM: rat DRG sensory neurones, read-out: CGRP release (% of capsaicin (1 μM) response); for Emax at 30 µM: test compound alone 30 μM

Emax (TRPV1 receptor [3]): -12%
SMILES: COc1cc(/C=C/C(=O)CC(=O)C(C)C)ccc1O [Compound 33, (E)-1-(4-Hydroxy-3-methoxyphenyl)-6-methyl-hept-1-ene-3,5-dione]

melting point: 170 to 172 °C
SMILES: COc1cc(/C=C/C(=O)CC(=O)c2ccc(O)c(OC)c2)ccc1O [Compound 47, (E)-1,5-Bis-(4-hydroxy-3-methoxyphenyl)-pent-4-ene-1,3-dione]
inhibition at 3 µM [1]: 5%
inhibition at 30 µM [1]: 23%
inhibition at 3 µM [2]: 10%
inhibition at 30 µM [2]: 109%
Decrease in cell viability (%) (WI-38 cells; 3 μM): 1%
Decrease in cell viability (%) (WI-38 cells; 30 μM): 11%
inhibition at 3 µM [4]: 6%
inhibition at 30 µM [4]: 33%

Emax (TRPV1 receptor [3]): 14%
melting point: 159 to 161.5 °C
SMILES: COc1cc(/C=C/C(=O)CC(=O)c2ccccc2)ccc1O [Compound 68, (E)-5-(4-Hydroxy-3-methoxyphenyl)-1-phenyl-pent-4-ene-1,3-dione]

melting point: 110 to 112 °C
SMILES: CCOc1cc(/C=C/C(=O)CC(=O)c2ccccc2)ccc1O [Compound 106, (E)-5-(3-Ethoxy-4-hydroxyphenyl)-1-phenylpent-4-ene-1,3-dione]

melting point: 68 to 70 °C
SMILES: COc1cc(/C=C/C(=O)CC(=O)c2ccc(Cl)c(C)c2)ccc1O [Compound 95, (E)-1-(4-Chloro-3-methylphenyl)-5-(4-hydroxy-3-methoxyphenyl)pent-4-ene-1,3-dione]

melting point: 106 °C
SMILES: COc1cc(/C=C/C(=O)CC(=O)Cc2ccccc2)ccc1O [Compound 60, (E)-6-(4-Hydroxy-3-methoxyphenyl)-1-phenyl-hex-5-ene-2,4-dione]

melting point: 86 to 87 °C
SMILES: COc1cc(C=CC(=O)CC(=O)c2ccc(Cl)cc2Cl)ccc1O [Compound 56, 1-(2,4-Dichlorophenyl)-5-(4-hydroxy-3-methoxyphenyl)pent-4-ene-1,3-dione]

melting point: 187 to 189 °C
SMILES: COC(=O)c1ccc(C(=O)CC(=O)/C=C/c2ccc(O)c(OC)c2)cc1 [Compound 57, Methyl 4-[(E)-1,3-dioxo-5-(4-hydroxy-3-methoxyphenyl)pent-4-enyl]benzoate]

More lines, now with the values behind:

SMILES: COc1cc(/C=C/C(=O)CC(=O)C(C)(C)C)ccc1O [Compound 34, (E)-1-(4-Hydroxy-3-methoxylphenyl)-6,6-dimethyl-hept-1-ene-3,5-dione]
inhibition at 3 µM [1]: 11%
inhibition at 30 µM [1]: 22%
inhibition at 3 µM [2]: 72%
inhibition at 30 µM [2]: 109%
Decrease in cell viability (%) (WI-38 cells; 3 μM): 3%
Decrease in cell viability (%) (WI-38 cells; 30 μM): 5%
Emax (TRPV1 receptor [3]): -15%
inhibition at 3 µM [4]: 2%
inhibition at 30 µM [4]: 43%

SMILES: COc1cc(CCC(=O)CC(=O)c2ccc(-c3ccccc3)cc2)ccc1O [Compound 18, 1-(Biphenyl-4-yl)-5-(4-hydroxy-3-methoxyphenyl)-pentane-1,3-dione]
inhibition at 3 µM [1]: 0%
inhibition at 30 µM [1]: 7%
inhibition at 3 µM [2]: 86%
inhibition at 30 µM [2]: 99%
inhibition at 3 µM (5-lipoxygenase): 58%
inhibition at 30 µM (5-lipoxygenase): 94%
Decrease in cell viability (%) (WI-38 cells; 3 μM): 3%
Decrease in cell viability (%) (WI-38 cells; 30 μM): 15%
melting point: 118 to 119 °C
inhibition at 3 µM [5]: 13%
inhibition at 30 µM [5]: 79%
inhibition at 3 µM (TRPV1 receptor [6]): 10%
inhibition at 30 µM (TRPV1 receptor [6]): -12%
Emax at 3 µM (TRPV1 receptor [6]): 146%
Emax at 30 µM (TRPV1 receptor [6]): 146%
inhibition at 3 µM [4]: 0%
inhibition at 30 µM [4]: 3%

SMILES: COc1cc(/C=C/C(=O)CC(=O)C2(C)CC2)ccc1O [Compound 38, (E)-5-(4-Hydroxy-3-methoxylphenyl)-1-(1-methylcyclopropyl)-pent-4-ene-1,3-dione]
Emax (TRPV1 receptor [3]): -36%
melting point: 78 to 80 °C

SMILES: COc1cc(CCC(=O)CC(=O)c2ccc3ccccc3c2)ccc1O [Compound 26, 5-(4-Hydroxy-3-methoxyphenyl)-1-(naphthalene-2-yl)-pentane-1,3-dione]
inhibition at 3 µM [1]: 3%
inhibition at 30 µM [1]: 34%
inhibition at 3 µM [2]: 81%
inhibition at 30 µM [2]: 100%
inhibition at 3 µM (5-lipoxygenase): 60%
inhibition at 30 µM (5-lipoxygenase): 98%
Decrease in cell viability (%) (WI-38 cells; 3 μM): 3%
Decrease in cell viability (%) (WI-38 cells; 30 μM): 10%
melting point: 101 to 102 °C
inhibition at 3 µM [5]: 2%
inhibition at 30 µM [5]: 64%
inhibition at 3 µM (TRPV1 receptor [6]): 47%
inhibition at 30 µM (TRPV1 receptor [6]): -31%
Emax at 3 µM (TRPV1 receptor [6]): 66%
Emax at 30 µM (TRPV1 receptor [6]): 248%
inhibition at 3 µM [4]: 7%
inhibition at 30 µM [4]: 40%

SMILES: COc1cc(CCC(=O)CC(=O)C2(C)CCCCC2)ccc1O [Compound 10, 5-(4-Hydroxy-3-methoxy-phenyl)-1-(1-methyl-cyclohexyl)-pentane-1,3-dione]
Emax (TRPV1 receptor [3]): 16%

SMILES: COc1cc(/C=C/C(=O)C(C)C(=O)c2ccccc2)ccc1O (stereo not shown) [Compound 43, (E)-5-(4-Hydroxy-3-methoxyphenyl)-2-methyl-1-phenyl-pent-4-ene-1,3-dione]
Emax (TRPV1 receptor [3]): -13%

SMILES: COc1cc(CCC(=O)CC(=O)CC(C)(C)C)ccc1O [Compound 3, 7,7-Dimethyl-1-(4-hydroxy-3-methoxyphenyl)-octane-3,5-dione]
Emax (TRPV1 receptor [3]): 63%

SMILES: COc1cc(/C=C/C(=O)CC(=O)CC(C)(C)C)ccc1O [Compound 35, (E)-7,7-Dimethyl-1-(4-hydroxy-3-methoxyphenyl)-oct-1-ene-3,5-dione]
Emax (TRPV1 receptor [3]): 25%
melting point: 130 to 132 °C

SMILES: COc1cc(/C=C/C(=O)CC(=O)C2(C)CCCCC2)ccc1O [Compound 42, (E)-5-(4-Hydroxy-3-methoxyphenyl)-1-(1-methylcyclohexyl)-pent-4-ene-1,3-dione]
Emax (TRPV1 receptor [3]): 6%

SMILES: COc1cc(CCC(=O)CC(=O)C2CCCC2)ccc1O [Compound 8, 1-Cyclopentyl-5-(4-hydroxy-3-methoxyphenyl)-pentane-1,3-dione]
Emax (TRPV1 receptor [3]): 36%

SMILES: COc1cc(/C=C/C(=O)CC(=O)C2CCCC2)ccc1O [Compound 40, (E)-1-Cyclopentyl-5-(4-hydroxy-3-methoxyphenyl)-pent-4-ene-1,3-dione]
Emax (TRPV1 receptor [3]): -82%
